Data on 14 compounds can be found in patent publication US12378248B2 (The United States of America, as represented by the …, priority 2018, dated 2025).

Where two headings read alike, the source gives them in different places.

One assay addresses T1, mA1AR (Mus musculus, UniProt Q60612).
T1 sequence (Q60612 1-326): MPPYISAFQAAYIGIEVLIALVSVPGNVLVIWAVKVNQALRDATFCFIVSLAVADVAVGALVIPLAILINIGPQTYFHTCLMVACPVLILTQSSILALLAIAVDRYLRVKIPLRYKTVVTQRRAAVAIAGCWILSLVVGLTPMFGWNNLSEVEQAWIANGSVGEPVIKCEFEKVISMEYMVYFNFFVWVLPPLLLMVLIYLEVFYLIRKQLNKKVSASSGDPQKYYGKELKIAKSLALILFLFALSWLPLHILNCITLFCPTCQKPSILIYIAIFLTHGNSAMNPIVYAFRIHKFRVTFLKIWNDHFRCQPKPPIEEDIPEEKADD
Description: Adenosine receptor binding, mA1AR.

In assay [1] the test system is wild-type C57BL/6J mice. Kind of assay: Locomotor activity by telemetry after ip dosing. Type of assay: in vivo, mouse. Conditions: average from dosing to 60 min, mean±SD. How it is done:
(§1) Compounds were dosed ip. Tb and activity were measured by telemetry and the averages from dosing to 60 min were calculated. […] Data are for the highest dose used and are mean±SD from 3 to 22 mice/group (usually 5-7). P values are unpaired t-Test vs vehicle-treated controls assayed simultaneously. Vehicle data are mean±SD from all (n=83) vehicle treated mice.

Assay [2] relates to wild-type C57BL/6J mice. Kind of assay: Hypothermia (Tb by telemetry) after ip dosing. Type of assay: in vivo, mouse. The conditions noted are these: average from dosing to 60 min, mean±SD. The protocol: as §1
The next assay has as its target T2, mA3AR (Mus musculus, UniProt Q61618).
T2 sequence (Q61618 1-319): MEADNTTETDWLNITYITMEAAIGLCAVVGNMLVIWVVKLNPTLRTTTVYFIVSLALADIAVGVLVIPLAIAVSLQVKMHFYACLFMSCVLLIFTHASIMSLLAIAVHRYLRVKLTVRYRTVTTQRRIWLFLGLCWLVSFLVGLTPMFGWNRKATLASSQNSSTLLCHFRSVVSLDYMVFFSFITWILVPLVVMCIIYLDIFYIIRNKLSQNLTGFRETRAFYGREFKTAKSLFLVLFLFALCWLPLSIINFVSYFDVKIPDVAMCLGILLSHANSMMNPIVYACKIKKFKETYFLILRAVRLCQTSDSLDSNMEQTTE
Description: Adenosine receptor binding, mA3AR. The conditions noted are these: (m); Ki; read-out: A3AR % inhibition or Ki (converted).

A further assay concerns the target sigma receptor σ1 (Homo sapiens, UniProt Q99720). Description: Off-target interaction determined by the PDSP. Type of assay: binding. Conditions: read-out: Off-target, receptor (h, unless noted) (Ki, μM): σ1.
A further assay deals with T3, hA1AR (Homo sapiens, UniProt P30542).
T3 construct: expressed in transfected cells; host or cells: CHO
T3 sequence (P30542 1-326): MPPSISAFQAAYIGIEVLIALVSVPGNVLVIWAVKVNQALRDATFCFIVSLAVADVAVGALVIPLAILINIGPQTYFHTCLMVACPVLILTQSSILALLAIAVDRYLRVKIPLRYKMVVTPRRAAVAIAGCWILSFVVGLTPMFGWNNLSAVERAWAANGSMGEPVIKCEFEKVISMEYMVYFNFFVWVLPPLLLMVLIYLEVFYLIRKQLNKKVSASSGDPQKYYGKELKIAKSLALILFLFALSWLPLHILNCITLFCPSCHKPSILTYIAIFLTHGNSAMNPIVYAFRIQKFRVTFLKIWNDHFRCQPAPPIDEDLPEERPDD
Kind of assay: Radioligand binding in membranes of CHO cells expressing hA1AR, [3H]N6-R-phenylisopropyladenosine. Conditions: read-out: A1AR % inhibition or Ki; for Ki: (h).

A further assay concerns the target serotonin receptor 5HT2B (Homo sapiens, UniProt P41595). Kind of assay: Off-target interaction determined by the PDSP. The conditions noted are these: read-out: Off-target, receptor (h, unless noted) (Ki, μM): 5HT2B. Type of assay: binding.
In a further assay the target is T4, hA2AAR (Homo sapiens, UniProt P29274).
T4 construct: expressed in transfected cells; host or cells: HEK293
Kind of assay: Radioligand binding in membranes of HEK293 cells expressing hA2AAR. The conditions noted are these: read-out: A2AAR % inhibition; for Ki: (h), values without % sign (Ki).

The next assay deals with T5, hA3AR (Homo sapiens, UniProt P0DMS8).
T5 construct: expressed in transfected cells; host or cells: CHO
T5 sequence (P0DMS8 1-318): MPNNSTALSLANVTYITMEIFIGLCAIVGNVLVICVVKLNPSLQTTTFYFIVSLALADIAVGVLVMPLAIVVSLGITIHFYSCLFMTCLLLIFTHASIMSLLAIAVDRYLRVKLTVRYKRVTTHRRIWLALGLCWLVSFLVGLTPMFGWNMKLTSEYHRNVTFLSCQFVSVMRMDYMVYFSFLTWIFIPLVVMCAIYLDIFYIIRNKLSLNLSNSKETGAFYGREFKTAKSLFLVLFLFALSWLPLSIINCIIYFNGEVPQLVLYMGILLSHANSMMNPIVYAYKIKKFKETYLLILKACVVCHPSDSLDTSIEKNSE
Kind of assay: Radioligand binding in membranes of CHO cells expressing hA3AR. Conditions: read-out: A3AR % inhibition or Ki; for Ki: (h).

Another assay concerns the target sigma receptor σ2 (UniProt Q5BJF2). Description: Off-target interaction determined by the PDSP. Type of assay: binding, human. The conditions noted are these: read-out: Off-target, receptor (h, unless noted) (Ki, μM): σ2.
For assay [3], the target named is TSPO (translocator protein) (UniProt P30536). Kind of assay: Off-target interaction determined by the PDSP. It counts as binding, human. Conditions: for Ki: read-out: Off-target, receptor (h, unless noted) (Ki, μM): TSPO.
In a further assay the target is T6, serotonin receptor 5HT2C (Homo sapiens, UniProt P28335).
T6 sequence (P28335 33-458): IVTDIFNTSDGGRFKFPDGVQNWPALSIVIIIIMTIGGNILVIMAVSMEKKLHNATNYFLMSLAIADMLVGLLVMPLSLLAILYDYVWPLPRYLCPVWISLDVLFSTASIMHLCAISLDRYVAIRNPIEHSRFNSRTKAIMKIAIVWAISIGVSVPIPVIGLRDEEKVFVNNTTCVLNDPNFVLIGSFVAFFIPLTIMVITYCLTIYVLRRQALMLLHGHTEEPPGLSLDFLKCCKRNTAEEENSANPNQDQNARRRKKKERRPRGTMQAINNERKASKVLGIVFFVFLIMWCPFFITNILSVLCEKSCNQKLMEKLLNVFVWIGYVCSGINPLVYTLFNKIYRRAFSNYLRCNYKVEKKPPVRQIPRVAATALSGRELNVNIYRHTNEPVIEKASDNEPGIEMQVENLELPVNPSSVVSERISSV
Description: Off-target interaction determined by the PDSP. It counts as binding. The conditions noted are these: read-out: Off-target, receptor (h, unless noted) (Ki, μM): 5HT2C.

[4] abbreviates: (m), Ki, read-out: A1AR % inhibition or Ki (converted).

One may read the inhibition as how much of the control response was suppressed.

sigma receptor σ1, sequence (Q99720 whole entry): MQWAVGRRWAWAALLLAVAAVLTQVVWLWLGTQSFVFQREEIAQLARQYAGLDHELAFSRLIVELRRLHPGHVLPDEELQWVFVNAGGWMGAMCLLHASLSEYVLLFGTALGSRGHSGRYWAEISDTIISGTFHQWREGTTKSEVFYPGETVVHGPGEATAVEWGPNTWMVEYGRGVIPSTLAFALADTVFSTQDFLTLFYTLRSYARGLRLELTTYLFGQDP
serotonin receptor 5HT2B, sequence (P41595 whole entry): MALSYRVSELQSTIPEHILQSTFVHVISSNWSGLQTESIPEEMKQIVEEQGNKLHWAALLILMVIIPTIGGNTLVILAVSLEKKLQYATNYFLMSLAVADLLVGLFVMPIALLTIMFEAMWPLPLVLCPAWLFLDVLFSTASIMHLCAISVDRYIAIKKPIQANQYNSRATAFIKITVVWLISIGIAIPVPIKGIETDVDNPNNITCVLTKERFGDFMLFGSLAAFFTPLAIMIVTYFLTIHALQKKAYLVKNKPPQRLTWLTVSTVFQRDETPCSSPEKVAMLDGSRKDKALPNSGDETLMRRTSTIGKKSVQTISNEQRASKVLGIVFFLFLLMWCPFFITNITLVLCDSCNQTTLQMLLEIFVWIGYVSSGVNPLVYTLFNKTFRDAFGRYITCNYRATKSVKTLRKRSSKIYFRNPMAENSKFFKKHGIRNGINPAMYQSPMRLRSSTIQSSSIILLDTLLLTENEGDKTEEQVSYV
T4 sequence (P29274 whole entry): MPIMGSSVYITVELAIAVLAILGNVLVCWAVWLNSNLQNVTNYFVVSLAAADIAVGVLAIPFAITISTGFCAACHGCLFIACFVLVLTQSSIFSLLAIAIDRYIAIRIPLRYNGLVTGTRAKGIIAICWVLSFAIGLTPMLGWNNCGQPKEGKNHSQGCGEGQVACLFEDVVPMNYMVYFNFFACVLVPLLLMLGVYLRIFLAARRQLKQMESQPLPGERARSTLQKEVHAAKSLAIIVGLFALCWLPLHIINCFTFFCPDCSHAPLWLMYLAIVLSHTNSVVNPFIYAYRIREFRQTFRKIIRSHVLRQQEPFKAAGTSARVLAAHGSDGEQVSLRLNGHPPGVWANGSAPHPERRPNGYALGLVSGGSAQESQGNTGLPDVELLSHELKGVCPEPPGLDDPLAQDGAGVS

`O[C@@H]1[C@H](O)[C@@H](CCl)O[C@H]1n1cnc2c(NC3CC4CCC3C4)ncnc21` (stereo partly drawn) [Compound 4, reference compound]: the Ki on mA1AR (setting [4]) is 0.2 nM; at mA3AR it was 2410 nM. Also, in the assay on wild-type C57BL/6J mice [1] (3 mg/kg ip), the “Activity (counts)” value is on record as 2.8 ± 1.6 counts. For the same compound, the “Tb (° C.)” value in the assay with wild-type C57BL/6J mice [2] (3 mg/kg ip) came to 32.2 ± 1.3 °C.

As to `CNC(=O)[C@@]12C[C@@H]1[C@@H](n1cnc3c(NC4CCCC4)nc(Cl)nc31)[C@H](O)[C@@H]2O` [Compound 6e, reference compound], the Ki on mA1AR (setting [4]) is 0.68 nM; on sigma receptor σ1, 1.55 µM; on hA1AR it was 18.3 ± 6.3 nM; at serotonin receptor 5HT2B it was 0.012 µM; at hA2AAR, 3250 ± 300 nM; on mA3AR it was 3.46 ± 0.13 nM. Further, at hA3AR, the Ki turned out to be 3.7 ± 0.9 nM.

`O[C@@H]1[C@H](O)[C@@H]2C[C@@H]2[C@H]1n1cnc2c(NC(C3CC3)C3CC3)nc(Cl)nc21` [Compound 7, reference compound]: in the assay on wild-type C57BL/6J mice [1] (3 mg/kg ip), the “Activity (counts)” value amounted to 5.5 ± 4.1 counts. For the same compound, the “Tb (° C.)” value in the assay on wild-type C57BL/6J mice [2] (3 mg/kg ip) was determined as 33.4 ± 1.7 °C.

`O[C@@H]1[C@H](O)[C@@H](CCl)O[C@H]1n1cnc2c(NC(C3CCC3)C3CCC3)ncnc21` [Compound 10, (2S,3S,4R,5R)-2-(Chloromethyl)-5-(6-((dicyclobutylmethyl)amino)-9H-purin-9-yl)tetrahydrofuran-3,4-diol]: the Ki on mA1AR (setting [4]) is 0.71 nM; at sigma receptor σ1 it was 0.69 µM; at hA1AR, 4.9 ± 0.87 nM; at sigma receptor σ2 it was 0.662 µM; on hA2AAR it was 5200 nM; at mA3AR, 2110 nM. Further, the Ki in [3] came to 3.98 µM; at hA3AR it was 16600 nM. Besides, the “Activity (counts)” value in the assay with wild-type C57BL/6J mice [1] (10 mg/kg ip) is 20.5 ± 4.6 counts. Moreover, in the assay on wild-type C57BL/6J mice [2] (10 mg/kg ip), the “Tb (° C.)” value came to 35.8 ± 0.1 °C.

Turning to `CCSC[C@H]1O[C@@H](n2cnc3c(NC(C4CCC4)C4CCC4)ncnc32)[C@H](O)[C@@H]1O` [Compound 11, (2R,3R,4S,5S)-2-(6-((Dicyclobutylmethyl)amino)-9H-purin-9-yl)-5-((ethylthio)methyl)tetrahydrofuran-3,4-diol], the Ki on mA1AR (setting [4]) was 3.58 nM; on sigma receptor σ1, 0.626 µM; at hA1AR, 63.4 ± 12.1 nM; at sigma receptor σ2, 0.642 µM; on mA3AR, 718 nM; at hA3AR it was 6220 ± 1480 nM. Further, the inhibition at 10 µM on hA2AAR was found to be 30 ± 5%. The “Off-target: TSPO (% inhib.)” value in assay [3] (footnote j not given) came out at 90%.

Turning to `OC[C@H]1O[C@@H](n2cnc3c(NC(C4CCC4)C4CCC4)nc(Cl)nc32)[C@H](O)[C@@H]1O` [Compound 12, (2R,3R,4R,5R)-2-(2-Chloro-6-((dicyclobutylmethyl)amino)-9H-purin-9-yl)-5-(hydroxymethyl)tetrahydrofuran-3,4-diol], the Ki at serotonin receptor 5HT2C is 1.45 µM; at mA1AR (Table 7, repeats the binding tables, read-out: Binding Ki for mA1AR), 0.65 nM; at hA1AR, 17.8 ± 8.7 nM; at hA2AAR, 2550 ± 540 nM; on mA3AR it was 653 nM; on hA3AR it was 13200 nM.

`Nc1ncnc2c1ncn2[C@@H]1O[C@H](C(=O)O)[C@@H](O)[C@H]1O` [Compound 14]: the Ki came out at 1.48 µM at sigma receptor σ1 and 0.796 µM at sigma receptor σ2. For the same compound, the figures for the inhibition at 10 µM at hA1AR, at hA2AAR and at hA3AR were 24 ± 4%, 11 ± 4% and 32%, respectively.

Take `Nc1ncnc2c1ncn2[C@@H]1O[C@H](C(=O)NCCO)[C@@H](O)[C@H]1O` [Compound 18, reference compound]: the Ki came out at 12.8 nM at hA1AR, 505 ± 30 nM at hA2AAR and 9450 nM on hA3AR.

Take `O[C@@H]1[C@H](O)[C@@H]2C[C@@H]2[C@H]1n1cnc2c(NC(C3CCC3)C3CCC3)nc(Cl)nc21` [Compound 19]: the inhibition at 10 µM on hA2AAR worked out at 46 ± 6%. Also, in assay [3], the Ki is 2.38 µM.

`Nc1nc(Cl)nc2c1ncn2[C@H]1[C@H](O)[C@H](O)[C@]2(CCl)C[C@H]12` [Compound 22]: the Ki on sigma receptor σ1 is 1.97 µM; at hA1AR, 7.61 ± 0.73 nM; on sigma receptor σ2, 2.55 µM; at hA2AAR it was 1750 ± 290 nM; at hA3AR it was 253 ± 148 nM.

Take `CCOC(=O)[C@@]12C[C@@H]1[C@@H](n1cnc3c(NC(C4CC4)C4CC4)nc(Cl)nc31)[C@H](O)[C@@H]2O` [Compound 32]: the Ki was found to be 0.054 µM on serotonin receptor 5HT2C, 360 ± 74 nM on hA1AR, 0.015 µM on serotonin receptor 5HT2B and 236 ± 41 nM at hA3AR.

For the compound `CCOC(=O)[C@@]12C[C@@H]1[C@@H](n1cnc3c(NC(C4CC4)C4CC4)nc(Cl)nc31)[C@@H]1OC(C)(C)O[C@@H]12` [Compound 33], the inhibition at 10 µM came to 49 ± 9% at hA1AR, 15 ± 2% on hA2AAR and 41 ± 6% on hA3AR.

For `CNC(=O)[C@@]12C[C@@H]1[C@@H](n1cnc3c(NC(C4CC4)C4CC4)nc(Cl)nc31)[C@H](O)[C@@H]2O` [Compound 34], the Ki came out at 0.749 µM on serotonin receptor 5HT2C; 110 ± 14 nM on hA1AR; 0.023 µM at serotonin receptor 5HT2B; 4320 ± 1870 nM on hA2AAR; 34 ± 11 nM on hA3AR.

As for `NC(=O)c1ncn([C@@H]2O[C@H](CO)[C@@H](O)[C@H]2O)n1` [Compound 38, ribavirin, reference compound], the results for the inhibition at 10 µM on hA2AAR and on hA3AR were 23 ± 6% and 16 ± 5%, respectively.
